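Following 48 hours of exposure in 96-well plates, responses at five concentrations were used to interpolate endpoints linearly. At the GI50, growth is halved.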 The source made the active and inactive calls. No stated cut-off is given here; in the data, active = GI50 up to about 1.1 µM and inactive = higher.
Legend:
Assay in all cases: DTP human tumour cell line panel, 48 h
SNB-75 = system: SNB-75
HCC 2998 = system: HCC 2998
UACC-62 = system: UACC-62
NCI-H226 = system: NCI-H226
LOX IMVI = system: LOX IMVI
MCF7 = system: MCF7
NCI-H522 = system: NCI-H522
K562 = system: K562
TK-10 = system: TK-10
SK-OV-3 = system: SK-OV-3
SK-MEL-2 = system: SK-MEL-2
SK-MEL-28 = system: SK-MEL-28
RPMI-8226 = system: RPMI-8226
SK-MEL-5 = system: SK-MEL-5
DU-145 = system: DU-145
UACC-257 = system: UACC-257
SW-620 = system: SW-620
COLO 205 = system: COLO 205
MOLT-4 = system: MOLT-4
DMS-114 = system: DMS-114

| Compound | GI50 (SNB-75) | GI50 (HCC 2998) | GI50 (UACC-62) | GI50 (NCI-H226) | GI50 (LOX IMVI) | GI50 (MCF7) | GI50 (NCI-H522) | GI50 (K562) | GI50 (TK-10) | GI50 (SK-OV-3) | GI50 (SK-MEL-2) | GI50 (SK-MEL-28) | GI50 (RPMI-8226) | GI50 (SK-MEL-5) | GI50 (DU-145) | GI50 (UACC-257) | GI50 (SW-620) | GI50 (COLO 205) | GI50 (MOLT-4) | GI50 (DMS-114) |
| --- | --- | --- | --- | --- | --- | --- | --- | --- | --- | --- | --- | --- | --- | --- | --- | --- | --- | --- | --- | --- |
| c1nnc(NCNc2nncs2)s1 | 30 µM (inactive) | 19.2 µM (inactive) | 93.3 µM (inactive) | > 100 µM (inactive) | 32.7 µM (inactive) | 38.5 µM (inactive) | 48.1 µM (inactive) | 42.8 µM (inactive) | 86.9 µM (inactive) | 23.7 µM (inactive) | 68.9 µM (inactive) | 64.4 µM (inactive) | 72.6 µM (inactive) | 62.2 µM (inactive) | 16 µM (inactive) | 47.8 µM (inactive) | 45.8 µM (inactive) | 56.1 µM (inactive) | 29.6 µM (inactive) | – |
| Cc1ccc(NC(=O)C(=O)Cc2nc3ccccc3o2)c(C)c1 | > 100 µM (inactive) | > 100 µM (inactive) | > 100 µM (inactive) | > 100 µM (inactive) | > 100 µM (inactive) | – | – | > 100 µM (inactive) | > 100 µM (inactive) | > 100 µM (inactive) | > 100 µM (inactive) | > 100 µM (inactive) | > 100 µM (inactive) | – | – | > 100 µM (inactive) | > 100 µM (inactive) | > 100 µM (inactive) | – | > 100 µM (inactive) |
| COc1ccc(/C=C/CN(C)CCc2ccccc2)cc1OC | 25.9 µM (inactive) | 32.1 µM (inactive) | > 100 µM (inactive) | > 100 µM (inactive) | – | – | – | 26.5 µM (inactive) | 46 µM (inactive) | – | > 100 µM (inactive) | > 100 µM (inactive) | 59.3 µM (inactive) | 59.2 µM (inactive) | – | 36.1 µM (inactive) | 97.3 µM (inactive) | 52 µM (inactive) | 40.6 µM (inactive) | 77.4 µM (inactive) |
| O=C(Nc1ccc2ccccc2c1)Nn1cnnc1 | > 100 µM (inactive) | > 100 µM (inactive) | > 100 µM (inactive) | 35.3 µM (inactive) | > 100 µM (inactive) | > 100 µM (inactive) | > 100 µM (inactive) | > 100 µM (inactive) | > 100 µM (inactive) | > 100 µM (inactive) | > 100 µM (inactive) | > 100 µM (inactive) | > 100 µM (inactive) | > 100 µM (inactive) | > 100 µM (inactive) | > 100 µM (inactive) | > 100 µM (inactive) | > 100 µM (inactive) | > 100 µM (inactive) | – |
| Cc1cc(NS(=O)(=O)c2ccc(NC(=O)c3ccc4nc5ccccc5c(Nc5ccc(S(=O)(=O)N=C(N)N)cc5)c4c3)cc2)no1 | 18.6 µM (inactive) | 16 µM (inactive) | 21.7 µM (inactive) | 14.2 µM (inactive) | 9.46 µM (inactive) | 19.8 µM (inactive) | 17.1 µM (inactive) | 10.6 µM (inactive) | 25.5 µM (inactive) | 23.3 µM (inactive) | 16.5 µM (inactive) | 18.2 µM (inactive) | 23.7 µM (inactive) | 16.2 µM (inactive) | 17.1 µM (inactive) | 26.2 µM (inactive) | 20.8 µM (inactive) | 18.8 µM (inactive) | 17.1 µM (inactive) | – |
| C(=N\c1nc2cc3sc(/N=C/c4ccccc4)nc3cc2s1)/c1ccccc1 | > 100 µM (inactive) | 29.9 µM (inactive) | 72.9 µM (inactive) | 20.7 µM (inactive) | 38.9 µM (inactive) | 20.8 µM (inactive) | 17.1 µM (inactive) | 29.1 µM (inactive) | > 50.6 µM (inactive) | > 100 µM (inactive) | > 100 µM (inactive) | > 100 µM (inactive) | 29.7 µM (inactive) | 25.5 µM (inactive) | > 66.5 µM (inactive) | > 100 µM (inactive) | 37.4 µM (inactive) | 4.01 µM (inactive) | 9.75 µM (inactive) | – |
| Cc1cc(N(CCC#N)CCC#N)ccc1/C=N/NC(=O)c1ccccc1 | 28.9 µM (inactive) | 9.2 µM (inactive) | 10.4 µM (inactive) | 20.2 µM (inactive) | 8.02 µM (inactive) | 7.82 µM (inactive) | 8.34 µM (inactive) | 3.76 µM (inactive) | 48.3 µM (inactive) | 18.5 µM (inactive) | 52.8 µM (inactive) | 31.5 µM (inactive) | 58.1 µM (inactive) | 22 µM (inactive) | 26.1 µM (inactive) | > 48.9 µM (inactive) | 8.38 µM (inactive) | 15.7 µM (inactive) | 24.3 µM (inactive) | – |
| COc1ccc2[nH]c3c(c2c1)COc1ccccc1C3=O | 18.6 µM (inactive) | > 100 µM (inactive) | > 100 µM (inactive) | > 100 µM (inactive) | > 100 µM (inactive) | > 100 µM (inactive) | > 100 µM (inactive) | > 100 µM (inactive) | > 100 µM (inactive) | > 100 µM (inactive) | 34.8 µM (inactive) | > 100 µM (inactive) | > 100 µM (inactive) | > 100 µM (inactive) | > 100 µM (inactive) | > 100 µM (inactive) | > 100 µM (inactive) | > 100 µM (inactive) | > 100 µM (inactive) | – |
| O=C1CCC2CCc3cccc4oc1c2c34 (stereo not drawn) | > 100 µM (inactive) | > 100 µM (inactive) | > 100 µM (inactive) | – | > 100 µM (inactive) | – | – | > 100 µM (inactive) | > 100 µM (inactive) | > 100 µM (inactive) | – | > 100 µM (inactive) | > 100 µM (inactive) | > 100 µM (inactive) | – | > 100 µM (inactive) | > 100 µM (inactive) | > 100 µM (inactive) | 96.2 µM (inactive) | > 100 µM (inactive) |
| C/C(CC(O)(C(F)(F)F)C(F)(F)F)=N\N | > 10 µM (inactive) | > 10 µM (inactive) | > 10 µM (inactive) | > 10 µM (inactive) | > 10 µM (inactive) | > 10 µM (inactive) | > 10 µM (inactive) | > 10 µM (inactive) | > 10 µM (inactive) | > 10 µM (inactive) | > 10 µM (inactive) | > 10 µM (inactive) | > 10 µM (inactive) | > 10 µM (inactive) | > 10 µM (inactive) | > 10 µM (inactive) | > 10 µM (inactive) | > 10 µM (inactive) | > 10 µM (inactive) | – |
| O=C1c2cccc3cc([N+](=O)[O-])cc(c23)C(=O)N1Nc1ccc([N+](=O)[O-])cc1[N+](=O)[O-] | 18.2 µM (inactive) | 14 µM (inactive) | 13.6 µM (inactive) | 14.5 µM (inactive) | 10.5 µM (inactive) | 14.5 µM (inactive) | 11.6 µM (inactive) | 4.29 µM (inactive) | 31.8 µM (inactive) | > 31.6 µM (inactive) | > 100 µM (inactive) | 11.9 µM (inactive) | 12.8 µM (inactive) | 13 µM (inactive) | 40.8 µM (inactive) | 13.3 µM (inactive) | 10 µM (inactive) | 11.5 µM (inactive) | 1.97 µM (inactive) | – |
| C=C(C)[C@@H]1CCc2c(c(C)cc(O)c(=O)c2O)C1 | 3.68 µM (inactive) | 1.76 µM (inactive) | 1.6 µM (inactive) | 2.72 µM (inactive) | 0.695 µM (active) | 1.48 µM (inactive) | 0.247 µM (active) | 0.881 µM (active) | 13.1 µM (inactive) | 1.49 µM (inactive) | 4.79 µM (inactive) | 4.63 µM (inactive) | 3.57 µM (inactive) | 0.564 µM (active) | 2.18 µM (inactive) | 6.81 µM (inactive) | 0.643 µM (active) | 1.63 µM (inactive) | 1.4 µM (inactive) | – |
| Cc1ccc(NC(=O)CC(=O)N2N=C(N(C)c3ccccc3)CC2c2ccccc2)cc1 (stereo not drawn) | 25.4 µM (inactive) | > 100 µM (inactive) | > 100 µM (inactive) | > 100 µM (inactive) | > 100 µM (inactive) | > 100 µM (inactive) | > 100 µM (inactive) | > 100 µM (inactive) | > 100 µM (inactive) | > 100 µM (inactive) | > 100 µM (inactive) | > 100 µM (inactive) | > 100 µM (inactive) | > 100 µM (inactive) | > 100 µM (inactive) | > 100 µM (inactive) | > 100 µM (inactive) | > 100 µM (inactive) | > 100 µM (inactive) | – |
| CCOc1cc(NC(C)=O)ccc1C(=O)N/N=C/c1ccco1 | > 100 µM (inactive) | > 100 µM (inactive) | 77.3 µM (inactive) | > 100 µM (inactive) | 38.4 µM (inactive) | 22.3 µM (inactive) | > 100 µM (inactive) | 4.05 µM (inactive) | > 100 µM (inactive) | > 100 µM (inactive) | > 100 µM (inactive) | > 100 µM (inactive) | 78.3 µM (inactive) | > 100 µM (inactive) | > 100 µM (inactive) | > 100 µM (inactive) | > 100 µM (inactive) | 44.6 µM (inactive) | 20.9 µM (inactive) | – |
| CCN(CC)C(=S)SS(=O)(=O)c1ccccc1C(=O)O | > 89.1 µM (inactive) | > 100 µM (inactive) | 66.4 µM (inactive) | > 46.7 µM (inactive) | > 100 µM (inactive) | 1.03 µM (active) | 2.67 µM (inactive) | > 100 µM (inactive) | > 100 µM (inactive) | > 100 µM (inactive) | > 100 µM (inactive) | > 100 µM (inactive) | > 100 µM (inactive) | > 60.7 µM (inactive) | > 100 µM (inactive) | > 100 µM (inactive) | > 100 µM (inactive) | > 100 µM (inactive) | 0.933 µM (active) | – |
